According to patent publication US20220177484A1, “MACROCYCLES WITH ANTIOXIDANT AND NEUROPROTECTIVE ACTIVITIES” (INSTITUTO BIOMAR, S.A, priority 2019, published 2022):

What was measured:
[1] = tested on: SH-SY5Y human neuroblastoma cells expressing mutated huntingtin (pEGFP-Q74); test: Mutated huntingtin aggregation in transfected SH-SY5Y cells; format: cell-based; details: 5 μM, 24 h
Description: Mutated huntingtin proteins aggregation are indicated by white arrows, GFP huntingtin protein (green) and β-tubulin (red). The images were acquired using the Operetta CLS automated confocal microscope, using the 40× water immersion objective.
(§1) SH-SY5Y human neuroblastoma cells were maintained in Dulbecco's modified Eagle's medium (DMEM) supplemented with 10% fetal bovine serum (FBS), 2 mM L-glutamine and 100 U/mL penicillin-0.1 mg/mL streptomycin at 37° C. and 5% CO2.
(§2) To study the effect of compounds on mutated huntingtin and synuclein that accumulates in cells, SH-SY5Y were transfected with a constitutively active mutated-huntingtin expression vector pEGFP-Q74 (encoding EGFP protein fused to a fragment of huntingtin corresponding to the exon 1 with 74 CAG repeats; c.54GCA[74]; Addgene; #40262) and EGFP-alphasynuclein-A53T (Addgene; #40823).
(§3) For transfection assays, cells were seeded (30×10^3 cells/cm^2) on 96-multiwell plates (coated with poliornitine-fibronectine). Cells were transfected with 0.3 μg pEGFP-Q74 plasmid using LTX with Plus Reagent according to the manufacturer's instructions (Thermo Fisher). After 24-h, the medium was changed with a new one, and cells were treated with increasing amounts of GKK1032C and CL0670 (0.1 μM, 1 μM and 5 μM) or DMSO (control cells) for 24 h at 37° C. […]

[2] = tested on: SH-SY5Y human neuroblastoma cells expressing EGFP-alphasynuclein-A53T; test: Mutated α-synuclein aggregation in transfected SH-SY5Y cells; format: cell-based; details: 5 μM, 24 h
Description: Mutated α-synuclein protein aggregation are indicated by white arrows, GFP α-synuclein protein (green) and β-tubulin (red). The images were acquired using the Operetta CLS automated confocal microscope, using the 40× water immersion objective.
as §1, §2, §3

[3] = Pharmacokinetics in plasma and brain after intraperitoneal administration; format: in vivo, female C57BL/6 mice; details: 150 mg/Kg intraperitoneal
Description: FIG. 10 represents the concentration of Compound I in plasma and brain of female C57BL/6 mice collected at t=0 min, 5 min, 15 min, 30 min, 1 hour, 4 hours, 10 hours, 24 hours and 48 hours.
The Maximum Tolerated Dose (MTD) and Pharmacokinetics (PK) of compound I were determined after intraperitoneal administration to female C57BL/6 (˜25 g) 9 weeks old mice. The injection comprised a 150 mg/Kg dose of compound I in Creomophor-EtOH-H2O (10:5:85). The concentrations of GKK1032C in plasma and brain were determined at different times per duplicate (pre-dose, 5 min, 15 min, 30 min, 1 h, 4 h, 10 h, 24 h and 48 h) using a previously validated analytical method. […] The highest concentration in the brain is 850 ng/mL at 4 hours after injection and progressively declined until reaching the control levels at 24 hours post-administration.

C57BL6/J male mice [4] = test: Novel Object Recognition test under normal conditions; format: in vivo; details: once-daily 150 mg/kg intraperitoneal for 3 days, test at day 4
Description: (§4) Experiments were conducted to evaluate if the intraperitoneal administration of Compound I to mice would have any effect in the animal's motor coordination, fear/anxiety and short-term memory behaviour. The motivation for this experiment is to determine if, under normal conditions, the injection of compound I would affect the behaviour of 8 weeks-old C57BL6/J male mice, in vivo. Mice were separated in group I (vehicle injection only) and group II (compound I injection). The mice were injected with a once-daily dose of 150 mg/kg for 3 days. The tests consisted in the rotarod performance test (at day 1, 2, 3 and 4), the open field test (at day 2 and 3) and the novel object recognition test (at day 4 only).

[5] = tested on: rat cortical primary neurons; test: Protein concentration in neurons incubated with L-BSO and rotenone (neuronal death); format: cell-based; details: L-BSO and rotenone 3 or 6 h with compound at 0.1, 1 or 5 μg/ml; effect as from 0.1 μg/ml (6 h) (FIG. 4)
[6] = tested on: rat cortical primary neurons; test: H2O2 formation in cortical primary neurons treated with L-BSO and rotenone (Amplex Red); format: cell-based
Description: The data are presented as the mean values±[…] of the mean (SEM) from n=6 (i.e., 6 independent wells measured independently).
After this period, cells were again washed and determined the rate of H2O2 production during the next 2 h.

C57BL6/J male mice [7] = test: Rotarod test under normal conditions; format: in vivo; details: once-daily 150 mg/kg intraperitoneal for 3 days, normal mice (FIG. 11)
Description: FIG. 11 represents the results from the rotarod test to 8 weeks-old C57BL6/J male mice separated in two groups: Control (mice injected with vehicle) and Compound I (mice injected with a once-daily dose of 150 mg/kg of Compound I).
as §4

| Compound | mutated huntingtin and number of aggregates [1] | mutated synuclein and number of aggregates [2] | highest concentration in the plasma ([3]; Creomophor-EtOH-H2O (10:5:85), mice (FIG. 10)) [ng/mL] | crossing of the blood-brain barrier ([3]; mice) | duration of high levels in the brain ([3]; mice) | highest concentration in the brain ([3]; mice) [ng/mL] | time at which brain concentration reaches the control levels post-administration ([3]; mice) [h] | time of highest concentration in the brain after injection ([3]; mice) [h] | time of highest concentration in the plasma after injection ([3]; mice) [h] | short-term memory (Novel Object Recognition) (C57BL6/J male mice [4]) | decrease in protein concentration remaining in the wells (neuronal death) [5] | rate of H2O2 formation by the neurons ([6]; L-BSO + rotenone 6 h, washed, then compound added at 1 and 5 μg/ml, H2O2 release recorded 2 h (FIG. 1)) | rate of H2O2 formation ([6]; compound 1 μg/ml together with L-BSO and rotenone for 6 h, washed, recorded 2 h (FIG. 2)) | H2O2 formation in untreated neurons ([6]; pre-treatment 5 μg/ml for 72 h, no L-BSO/rotenone (FIG. 3)) | L-BSO+rotenone-induced H2O2 formation ([6]; pre-treatment 5 μg/ml for 72 h, washed, then L-BSO and rotenone 6 h, recorded 2 h (FIG. 3)) | motor coordination (rotarod) (C57BL6/J male mice [7]) |
| --- | --- | --- | --- | --- | --- | --- | --- | --- | --- | --- | --- | --- | --- | --- | --- | --- |
| C=CC1(C)C=C(C)C2C3C(Oc4ccc(cc4)CC4C(=O)NC(O)C4C(=O)C31)C1C(C)CC(C)CC21C (centres unmarked) [CL0670] | significantly decreased | significantly decreased | – | – | – | – | – | – | – | – | – | – | – | – | – | – |
| C=CC1(C)C=C(C)C2C3C(Oc4ccc(cc4)CC4(O)NC(=O)C5(OC45)C(=O)C31)C1C(C)CC(C)CC21C (centres unmarked) [Compound I] | – | significantly decreased | 30000 | successfully crosses the blood-brain barrier | about 18 hours | 850 | 24 | 4 | 4 | did not alter | dose-dependently prevented such decrease | dose-dependently decreased | significantly impaired | prevented | very significantly prevented | no effect |
